Assay [1] addresses T1, glucocorticoid receptor (Rattus norvegicus, UniProt P06536).
T1 construct: receptors in the cytosol from animal target organs; from tissue; host or cells: thymus cytosol of adrenalectomized rat
T1 sequence (P06536 1-795): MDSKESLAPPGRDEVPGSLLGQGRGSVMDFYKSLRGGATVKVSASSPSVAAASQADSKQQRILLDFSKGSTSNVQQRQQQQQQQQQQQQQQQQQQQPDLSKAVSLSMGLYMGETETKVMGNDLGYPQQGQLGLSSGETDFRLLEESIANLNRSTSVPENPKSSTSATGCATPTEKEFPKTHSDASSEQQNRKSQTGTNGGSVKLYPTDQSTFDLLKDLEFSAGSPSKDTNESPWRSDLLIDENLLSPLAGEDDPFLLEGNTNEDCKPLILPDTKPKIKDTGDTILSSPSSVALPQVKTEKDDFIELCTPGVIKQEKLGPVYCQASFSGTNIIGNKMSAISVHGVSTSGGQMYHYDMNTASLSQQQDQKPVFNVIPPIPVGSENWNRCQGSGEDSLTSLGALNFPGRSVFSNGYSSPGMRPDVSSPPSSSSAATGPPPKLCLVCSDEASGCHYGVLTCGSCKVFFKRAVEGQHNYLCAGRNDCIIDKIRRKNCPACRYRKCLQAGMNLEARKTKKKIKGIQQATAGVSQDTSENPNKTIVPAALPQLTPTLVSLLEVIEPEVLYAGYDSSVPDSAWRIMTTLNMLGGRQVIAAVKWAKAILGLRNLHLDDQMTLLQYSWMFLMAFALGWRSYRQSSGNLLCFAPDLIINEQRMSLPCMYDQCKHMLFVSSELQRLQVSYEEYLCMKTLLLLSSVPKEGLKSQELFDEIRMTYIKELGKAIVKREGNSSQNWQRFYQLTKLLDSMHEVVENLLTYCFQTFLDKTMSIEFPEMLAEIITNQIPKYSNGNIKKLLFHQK
Description: Receptor bonding affinity: competitive bonding of 3H-dexamethasone and test compound to glucocorticoid receptor in thymus cytosol of the adrenalectomized rat. It counts as binding. Particulars: dexamethasone = 100%; tracer 3H-dexamethasone 20 nM; 18 hours at 0-4 °C; quotient of IC50 values x 100%. Here is the method:
Measurement of bonding affinity for receptors
Receptor bonding affinity was determined by competitive bonding of a specifically binding ^3 H labelled hormone (tracer) and the compound to be tested to receptors in the cytosol from animal target organs. It was tried to obtain receptor saturation and a balanced reaction. The following incubation conditions were selected:
Glucocorticoid receptor: thymus cytosol of the adrenalectomized rat, thymi kept at -30° C., buffer: TED. Tracer: ^3 H-dexamethasone, 20 nM; reference substance: dexamethasone.
After an incubation period of 18 hours at 0°-4° C., bonded and free steroid was separated by mixing in active carbon/dextrane (1%/0.1%), centrifuging off and measuring the bonded ^3 H activity in the supernatant.
The IC50 for the compound to be tested and for the reference substance were determined from measurements in series of concentrations.

Assay [2] deals with early gravidity in the rat. The experiment in a line: Inhibition of early gravidity (early abortive effect) in the rat after subcutaneous application from the 5th to 7th day of pregnancy. Format: in vivo. To be noted: for complete gravidity inhibition (N*/N) / complete gravidity inhibition (%) / ED 50 (complete gravidity inhibition): d5-d7; for complete gravidity inhibition (N*/N): N* females not pregnant / N inseminated females; for complete gravidity inhibition (N*/N) / complete gravidity inhibition (%): empty uteri; for ED 50 (complete gravidity inhibition): s.c., graphic determination. As for the experimental part: Early abortive effect of RU 486 and J 914 (Example 1) and
J 900 (Example 2) in the rat after subcutaneous
application from the 5th to 7th day of pregnancy (dose
0.2 ml/animal/day in benzylbenzoate/castor oil
N number of inseminated females
N* number of females not pregnant
^++ graphic determination
Inhibition of early gravidity in the rat:
Female rats are mated in the pro-oestrus. If semen is found in the vaginal smear on the next day, this day is counted as day 1 (=d1) of the gravidity. Treatment with the test substance or vehicle is applied on d5-d7, autopsy is carried out on d9. The substances are injected subcutaneously in 0.2 ml of vehicle (benzyl benzoate/castor oil 1+4).

Take `COC[C@]1(OC)CC[C@H]2[C@@H]3CCC4=CC(=O)CCC4=C3[C@@H](c3ccc(C=NOC(C)=O)cc3)C[C@@]21C` [Example 1, 11β-[4-(acetyloximinomethyl)phenyl]-17β-methoxy-17α-methoxymethyl-estra-4,9-diene-3-on]: the “Relative molar bonding affinity (RBA) for the glucocorticoid receptor” value (“Relative molar bonding affinity (RBA)” below) in assay [1] is listed as 73%. The “complete gravidity inhibition (N*/N)” value in assay [2] (0.1 mg/animal/day s.c.) was 0/6; in assay [2] (0.3 mg/animal/day s.c.) it was 1/5; in assay [2] (1.0 mg/animal/day s.c.), 7/10; in assay [2] (3.0 mg/animal/day s.c.) it was 5/5. Further, the “complete gravidity inhibition (%)” value was determined as 0% in assay [2] (0.1 mg/animal/day s.c.), 20% in assay [2] (0.3 mg/animal/day s.c.), 70% in assay [2] (1.0 mg/animal/day s.c.) and 100% in assay [2] (3.0 mg/animal/day s.c.). For the same compound, the “ED 50 (complete gravidity inhibition)” value in assay [2] came to 0.6 mg/animal/day.

For `CCOC(=O)ON=Cc1ccc([C@H]2C[C@@]3(C)[C@@H](CC[C@]3(COC)OC)[C@@H]3CCC4=CC(=O)CCC4=C32)cc1` [Example 2, 11β-[4-(ethoxycarbonyloximinomethyl)phenyl]-17β-methoxy-17α-methoxymethyl-estra-4,9-diene-3-on], the “Relative molar bonding affinity (RBA)” value in assay [1] worked out at 66%. Besides, in assay [2] (0.3 mg/animal/day s.c.), the “complete gravidity inhibition (N*/N)” value is 0/5 and the “complete gravidity inhibition (%)” value was 0%. Further, in assay [2] (1.0 mg/animal/day s.c.), the “complete gravidity inhibition (N*/N)” value is given as 9/10 and the “complete gravidity inhibition (%)” value was 90%. Besides, the “inhibition capability of nidation, in words” value in assay [2] (as compared to RU 486) is “superior inhibition capability of nidation”. In assay [2], the “ED 50 (complete gravidity inhibition)” value is on record as 0.6 mg/animal/day.

Turning to `CC#C[C@]1(O)CC[C@H]2[C@@H]3CCC4=CC(=O)CCC4=C3[C@@H](c3ccc(N(C)C)cc3)C[C@@]21C` [RU 486, reference compound], the “Relative molar bonding affinity (RBA)” value in assay [1] came to 685%. The “complete gravidity inhibition (N*/N)” value in assay [2] (0.3 mg/animal/day s.c.) is on record as 0/5; in assay [2] (1.0 mg/animal/day s.c.), 2/5; in assay [2] (3.0 mg/animal/day s.c.), 5/5. Moreover, the entries for the “complete gravidity inhibition (%)” value in assay [2] (0.3 mg/animal/day s.c.), in assay [2] (1.0 mg/animal/day s.c.) and in assay [2] (3.0 mg/animal/day s.c.) were 0%, 40% and 100%, respectively. Besides, the “ED 50 (complete gravidity inhibition)” value in assay [2] is 1.1 mg/animal/day.

With `CN(C)c1ccc([C@H]2C[C@]3(C)[C@@H](CC[C@]3(O)CCCO)[C@@H]3CCC4=CC(=O)CCC4=C32)cc1` [ZK 98299, reference compound], the “Relative molar bonding affinity (RBA)” value in assay [1] was found to be 39%.

These data come from patent publication US5576310A, “11-benzaldoxime-17β-methoxy-17α-methoxymethyl-estrasdiene derivatives, methods for their production and pharmaceuticals containing such compounds” (Jenapharm GmbH, priority 1994, dated 1996).
